Assay results taken from patent US4689426A, “5-alkylidene-2-halo-4-substituted-2-cyclopentenone and process for production thereof” (Teijin Limited, priority 1983, dated 1987).
≈ marks a conversion by molar mass, not a printed value. One block for each molecule: values may come before it.

What was measured:
[1] = test system: L1210 leukemia cells; test: Inhibition of proliferation of L1210 leukemia cells; assay type: cell-based; conditions: Mus musculus, L1210, 96 h; 4 days at 37° C., trypan blue count of surviving cells
Protocol: Measurement of the action of inhibiting proliferation of L1210 leukemia cells
L1210 leukemia cells were added to an RPMI medium containing 10% FCS (fetal calf serum), and the concentration of the cells was adjusted to 1×10^5 cells/ml. Each of the test compounds shown in Table 1 was dissolved in 99.5% ethanol. Prior to use, the final concentration of the ethanol solution was adjusted to less than 0.1%, and it was added to the culture medium. The culture medium was then maintained at 37° C. in a stationary condition for 4 days. After the cultivation, the number of surviving cells was measured by dyeing with trypan blue. As a control, 0.1% ethanol was used. A dose-response curve was plotted from the ratios of proliferation against the control, and IC50 was determined.

[2] = test system: HSV type-1 (KOS); test: Inhibition of herpes simplex virus replication in human embryo lung cells, plaque assay on Vero cells; assay type: cell-based, herpes simplex virus type-1 (strain KOS); conditions: 4 μg/ml, 24 hrs. pretreatment and 24 hrs. after infection; m.o.i. 1; control 1.4 × 10^8; mean of at least three wells
Protocol: (§1) Measurement of inhibitory activities on herpes simplex virus replication
(§2) To evaluate the inhibitory effect of 2-chloro-4-(3,7-dimethyl-6-octenyl)-5-(6-carbomethoxyhexylidene)-2-cyclopentenone against herpes simplex virus [HSV] replication in vitro, human embryo lung cells [HELR66] were grown in 6-well Falcon plates in Eagle's minimal essential medium [MEM] supplemented with 5 percent fetal calf serum [CS] and antibiotics.
(§3) The test compound was dissolved in absolute ethanol and diluted to the appropriate concentrations with culture medium just before use. The cells were incubated at 37° C. in a humidified atmosphere containing 5 percent CO2 and 95 percent air. Confluent monolayers of the cells were treated with 4 μg/ml of the test compound for 24 hrs. before HSV infection. The test compound pretreated cells were infected with HSV type-1 (strain KOS) or HSV type-2 (strain YS-4) at a m.o.i. of 1. After 1 hr. of incubation at 37° C., the cells were further incubated for 24 hrs. with MEM containing with 2 percent CS, antibiotics and 4 μg/ml the test compound. Control media contained the identical concentration of ethanol. HSV infected HEL-R66 cells were harvested with a rubber policeman 24 hrs. after HSV inoculation and stored at -70° C. Titrations were performed by plaque assays on Vero cells.

[3] = test system: HSV type-2 (YS-4); test: as above; assay type: cell-based, herpes simplex virus type-2 (strain YS-4); conditions: 4 μg/ml, 24 hrs. pretreatment and 24 hrs. after infection; m.o.i. 1; control 1.4 × 10^8; mean of at least three wells
Protocol: as §1, §2, §3

[4] = test system: Ehrlich ascites carcinoma cells; test: Antitumor effect on Ehrlich ascites carcinoma, survival of mice; assay type: in vivo, ICR mice; conditions: over the control
Protocol: Measurement of the antitumor effect on Ehrich ascites carcinoma
1×10^5 Ehrlich ascites carcinoma cells were intraperitoneally administered to ICR mice. After the lapse of 24 hours, 30 mg/kg/day or 20 mg/kg/day of 2-chloro-4-butyl-5-(6-carboxyhexylidene)-2-cyclopentenone (E-form) was intraperitoneally administered to the mice for 5 days. The periods of survival of these animals were examined.

[5] = test system: B. subtilis ATCC 6633; test: Antimicrobial activity, serial two-fold dilution; assay type: cell-based; conditions: Bacillus subtilis, ATCC6633; Gram (+); heart infusion agar
Protocol: (§4) Measurement of the antimicrobial activity against Gram positive and negative bacterium
(§5) One loopful of cell suspension (10^8 cells/ml) was inoculated on heart infusion agar medium containing various levels of a compound of this invention (2-chloro-4-n-butyl-5-(6-carboxyhexylidene)-2-cyclopentenone). The minimum inhibitory concentrations (MIC) was determined by a standard serial two-fold dilution method.

[6] = test system: P. aeruginosa IFO 3445; test: Antimicrobial activity, serial two-fold dilution; assay type: cell-based; conditions: Pseudomonas aeruginosa, IFO3445; Gram (-); heart infusion agar
Protocol: as §4, §5

[7] = test system: P. vulgaris H × 19; test: Antimicrobial activity, serial two-fold dilution; assay type: cell-based; conditions: Proteus vulgaris; Gram (-); heart infusion agar
Protocol: as §4, §5

[8] = test system: S. aureus MS 353; test: Antimicrobial activity, serial two-fold dilution; assay type: cell-based; conditions: Staphylococcus aureus, MS353; Gram (+); heart infusion agar
Protocol: as §4, §5

[9] = test system: L1210 mouse leukemia cells; conditions: Biochem. Biophys. Res. Commun., 105, 956 (1982); cited from earlier work

SMILES: CCCCC1C=C(Br)C(=O)/C1=C/CCCCCC(=O)OC (single isomer, unassigned) [2-bromo-4-butyl-5-(6-methoxycarbonylhexylidene)-2-cyclopentenone]
- IC50 [1]: 0.2 µg/mL (≈ 0.56 µM)

SMILES: CCCCC1C=C(Br)C(=O)/C1=C\CCCCCC(=O)OC (single isomer, unassigned) [2-bromo-4-butyl-5-(6-methoxycarbonylhexylidene)-2-cyclopentenone]
- IC50 [1]: 0.1 µg/mL (≈ 0.28 µM)

SMILES: CCCCC1C=C(Cl)C(=O)/C1=C/CCCCCC(=O)OC (single isomer, unassigned) [2-chloro-4-butyl-5-(6-methoxycarbonylhexylidene)-2-cyclopentenone]
- IC50 [1]: 0.1 µg/mL (≈ 0.32 µM)

SMILES: CCCCC1C=C(Cl)C(=O)/C1=C\CCCCCC(=O)OC (single isomer, unassigned) [2-chloro-4-butyl-5-(6-methoxycarbonylhexylidene)-2-cyclopentenone]
- IC50 [1]: < 0.3 µg/mL

SMILES: COC(=O)CCCCCC=C1C(=O)C(Cl)=CC1CCC(C)CCC=C(C)C (stereo not shown) [2-chloro-4-(3,7-dimethyl-6-octenyl)-5-(6-carbomethoxyhexylidene)-2-cyclopentenone]
- Virus yield [2]: 3.1 × 10^4 pfu/ml
- Virus yield [3]: 5.4 × 10^4 pfu/ml

- MIC [5]: 6.24 µg/mL (≈ 20.9 µM)
- MIC [6]: 100 µg/mL (≈ 335 µM)
- MIC [7]: 25 µg/mL (≈ 83.7 µM)
- MIC [8]: 100 µg/mL (≈ 335 µM)
SMILES: CCCCC1C=C(Cl)C(=O)/C1=C/CCCCCC(=O)O (stereo not shown) [2-chloro-4-butyl-5-(6-carboxyhexylidene)-2-cyclopentenone]
- increase of life span (ILS%) ([4]; 20 mg/kg/day i.p. for 5 days): 40.2%
- increase of life span (ILS%) ([4]; 30 mg/kg/day i.p. for 5 days): 30.7%

SMILES: CCCCC[C@H](O)/C=C/[C@H]1C(=O)C[C@H](O)[C@@H]1C/C=C\CCCC(=O)O [PGD2]
- IC50 of PGD2 on L1210 cells [9]: 2.4 micrograms/ml
